From ChEMBL document CHEMBL2073905, “Interactions of a nonpeptidic drug, valacyclovir, with the human intestinal peptide transporter (hPEPT1) expressed in a mammalian cell line” (J Pharmacol Exp Ther, 1999)
Where a SMILES comes first, the peptide text is derived from it. [ ]: non-standard residue; d: D form. Sar = CNCC(=O)O

What was measured:
Assay type in all cases: functional, cell-based
[1] = molecular target: T1, Solute carrier family 15 member 1 (Homo sapiens) (UniProt P46059); test: TP_TRANSPORTER: inhibition of VACV uptake (VAVC: 20 uM, Ampicillin: 10000 uM) in PEPT1-expressing CHO cells
T1 sequence (whole entry): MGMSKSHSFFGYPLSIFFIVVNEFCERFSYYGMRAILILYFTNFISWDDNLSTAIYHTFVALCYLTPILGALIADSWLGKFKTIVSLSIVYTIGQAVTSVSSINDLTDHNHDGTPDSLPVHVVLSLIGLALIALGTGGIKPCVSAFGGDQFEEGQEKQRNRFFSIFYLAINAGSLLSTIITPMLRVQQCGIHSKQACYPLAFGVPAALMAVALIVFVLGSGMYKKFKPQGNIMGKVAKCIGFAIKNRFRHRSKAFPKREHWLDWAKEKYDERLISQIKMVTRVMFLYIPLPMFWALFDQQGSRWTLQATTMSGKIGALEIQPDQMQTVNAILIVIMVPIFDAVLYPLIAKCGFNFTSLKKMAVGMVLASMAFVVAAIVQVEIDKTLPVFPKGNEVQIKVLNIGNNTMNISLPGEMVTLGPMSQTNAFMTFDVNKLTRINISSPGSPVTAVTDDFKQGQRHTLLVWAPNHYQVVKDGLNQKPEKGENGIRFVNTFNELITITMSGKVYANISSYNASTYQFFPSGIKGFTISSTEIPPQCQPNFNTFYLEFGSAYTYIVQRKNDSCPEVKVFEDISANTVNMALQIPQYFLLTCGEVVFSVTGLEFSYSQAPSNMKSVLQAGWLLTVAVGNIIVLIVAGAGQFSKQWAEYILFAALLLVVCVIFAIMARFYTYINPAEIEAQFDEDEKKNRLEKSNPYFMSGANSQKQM

[2] = molecular target: T1, Solute carrier family 15 member 1 (Homo sapiens); test: TP_TRANSPORTER: inhibition of VACV uptake (VACV: 20 uM, Leu-Leu: 10000 uM) in PEPT1-expressing CHO cells
[3] = molecular target: T2, Solute carrier family 15 member 1 (Homo sapiens, UniProt P46059); test: TP_TRANSPORTER: inhibition of VACV uptake in PEPT1-expressing CHO cells
T2 sequence (P46059 whole entry): T1 sequence (whole entry)

[4] = molecular target: T1, Solute carrier family 15 member 1 (Homo sapiens); test: TP_TRANSPORTER: inhibition of VACV uptake (VACV: 20 uM, Gly-Gly: 10000 uM) in PEPT1-expressing CHO cells
[5] = molecular target: T1, Solute carrier family 15 member 1 (Homo sapiens); test: TP_TRANSPORTER: inhibition of VACV uptake (VACV: 20 uM, Gly-Leu: 10000 uM) in PEPT1-expressing CHO cells
[6] = molecular target: T1, Solute carrier family 15 member 1 (Homo sapiens); test: TP_TRANSPORTER: inhibition of VACV uptake (VACV: 20 uM, Cephalexin: 10000 uM) in PEPT1-expressing CHO cells
[7] = substrate: CC(C)[C@H](N)C(=O)OCCOCn1cnc2c(=O)nc(N)[nH]c21; test: (§1) TP_TRANSPORTER: uptake in PEPT1-expressing CHO cells
[8] = substrate: CN(CC(=O)O)C(=O)CN; test: as §1

## CC1(C)S[C@@H]2[C@H](NC(=O)[C@H](N)c3ccccc3)C(=O)N2[C@H]1C(=O)O
[1]
  inhibition: 50%

## CC(C)C[C@H](NC(=O)[C@@H](N)CC(C)C)C(=O)O
[2]
  inhibition: > 80%

## CC1=C(C(=O)O)N2C(=O)[C@@H](NC(=O)[C@H](N)c3ccc(O)cc3)[C@H]2SC1 [CEFADROXIL]
[3]
  Ki: 9.1 mM

## NCC(=O)NCC(=O)O (H-Gly-Gly-OH)
[4]
  inhibition: > 80%

## CN(CC(=O)O)C(=O)CN [GLYCYLSARCOSINE] (H-Gly-[Sar]-OH)
[3]
  Ki: 12.8 mM

## CC(C)C[C@H](NC(=O)CN)C(=O)O
[5]
  inhibition: > 80%

## CC1=C(C(=O)O)N2C(=O)[C@@H](NC(=O)[C@H](N)c3ccccc3)[C@H]2SC1
[6]
  inhibition: 50%

B1: Solute carrier family 15 member 1 (Homo sapiens), P46059 (protein)
chain: T1 sequence (whole entry)
[7]
  Km: 1640 µM
[8]
  Km: 3130 µM
